Measured values: US9857359B2, “Methods for determining drug efficacy using cereblon-associated proteins” (CELGENE CORPORATION, priority 2012, dated 2018)

Tests used:
Aiolos [1] = experiment: Endogenous Aiolos in breast cancer cells, western blot; assay type: cell-based
Protocol: Cell lines (AU565, ZR 75-1, BT-474, EFM-192A, HCC1954, HCC70, MB436 and BT549) were maintained using standard cell culture techniques. For endogenous Aiolos expression, cells were seeded in a 6 well plate at 0.5×10^6 cells per well in a 3 mL volume of media. Cells were allowed to adhere to the plate overnight. Cells were exposed to 0, 1, and 10 μM Compound A for the specified amounts of time.
Cells were harvested and lysed in Pierce #89900 Ripa buffer containing 2× protease inhibitor cocktail from Pierce #78442. The lysate was applied to a QiaShredder to remove DNA. Total protein yield was measured using BioRad DC protein determination kit (Cat#500-0112). Lysates were stored at −80° C. until use. Samples were applied to BioRad Criterion PreCast gels, 10% (Bio-Rad#345-0010) and transferred to Bio-Rad Nitrocellulose/Filter Paper Sandwiches (#162-0233) for western blot analysis.

Aiolos [2] = experiment: Aiolos Western blotting in monkey PBMCs; assay type: cell-based, Mauritius Monkey; conditions: 2 nM and 200 nM, 18 hours after treatment
Helios = molecular target: T1, Helios (Homo sapiens, UniProt Q9UKS7); experiment: SimpleWestern of normal human CD19+ B cells, Helios; assay type: cell-based; conditions: various concentrations
T1 construct: endogenous in cells; host or cells: normal human CD19+ B cells
Protocol: Human B cells were isolated from 3 donors of whole bloods from the New Jersey Blood Center using B cell isolation kits from StemCell Technologies. IKZF family proteins were quantified using the automated capillary-based SimpleWestern System Sally (ProteinSimple). 100 ng of cell lysate protein or serial dilutions of recombinant proteins were mixed in reducing buffer with fluorescent Molecular Weight (MW) standards. After these samples were heated to 95° C. for 5 min, samples were loaded into each capillary tubes and proteins were separated based on MW sizes through stacking and separation matrices for 40 minutes at 250 Volts. Proteins were then immobilized to capillary walls using optimal photoactivated capture chemistry. Following protein immobilization, capillaries were incubated with a blocking reagent for 23 min and target proteins were probed with a specific primary antibody and horseradish peroxidase-conjugated anti-rabbit secondary antibody (ProteinSimple). A mixture of luminol and peroxide (ProteinSimple) was added, the resulting chemiluminescent signal was captured by a CCD camera, and the signal intensities were quantified and analyzed using Compass Software for Sally (ProteinSimple). The Ikaros family proteins in each sample were then calculated based on standard curve of human recombinant proteins. B-Actin was also used as an internal normalization control.

[3] = tested on: interferon regulatory factor 4 (IRF4); experiment: IRF4 expression in DLBCL cells; assay type: cell-based; conditions: ABC-DLBCL cells
Ikaros = Ikaros (Homo sapiens, UniProt Q13422); experiment: Ikaros immunohistochemistry in H929 xenograft tumors; assay type: in vivo, SCID mice; set-up: formalin fixed paraffin-embedded xenograft tumour sections were stained with antibodies; endogenous in cells; host or cells: NCI-H929 tumour xenograft in female SCID mice; conditions: 7 days oral daily
Protocol: Female SCID mice (Fox Chase SCID®, C.B-17/Icr-Prkdcscid, Charles River) (Wilmington, Mass.) were injected subcutaneously in the right flank with total of 1×10^7 NCI-H929 tumor cells in 50% matrigel (BD Biosciences). […] Mice were monitored daily for health status as well as tumor growth. Tumors of all mice were measured with a digital caliper, and volumes were calculated with the following formula: tumor volume (mm^3)=length (mm)×width (mm)^2.
Four micron thick formalin fixed paraffin-embedded xenograft tumour sections were stained with antibodies to CRBN (rabbit monoclonoal Celgene CRBN65), Aiolos (rabbit polyclonal antibody; Santa Cruz, Dallas, Tex.), and Ikaros (rabbit polyclonal antibody; Millipore, Billerica, Mass.) using the Bond-Max automated slide strainer (Leica Microsystems, Buffalo Grove, Ill.) and the associated Bond Polymer Refine Detection Kit. Antigen retrieval was performed with Epitope Retrieval 2 (pH 9.0) for 20 min at 100° C. on the instrument. The slides were blocked for endogenous peroxidase activity with Peroxide Block for 5 min at room temperature. […] IHC staining intensity was scored on a scale of 0-3 (0=negative, 1=weak, 2=intermediate, 3=strong). Range of cells with specific immunoreactivity (<1%=0, 1-25%=1, 26-75%=2, and >75%=3) were recorded. Total score of the immunoreactivity intensity was calculated as product of intensity and range of positive cells.

Aiolos [4] = experiment: Aiolos regulation in cells with low or lost CRBN expression; assay type: cell-based; conditions: loss of CRBN protein

Sequence of Ikaros (Q13422 whole entry): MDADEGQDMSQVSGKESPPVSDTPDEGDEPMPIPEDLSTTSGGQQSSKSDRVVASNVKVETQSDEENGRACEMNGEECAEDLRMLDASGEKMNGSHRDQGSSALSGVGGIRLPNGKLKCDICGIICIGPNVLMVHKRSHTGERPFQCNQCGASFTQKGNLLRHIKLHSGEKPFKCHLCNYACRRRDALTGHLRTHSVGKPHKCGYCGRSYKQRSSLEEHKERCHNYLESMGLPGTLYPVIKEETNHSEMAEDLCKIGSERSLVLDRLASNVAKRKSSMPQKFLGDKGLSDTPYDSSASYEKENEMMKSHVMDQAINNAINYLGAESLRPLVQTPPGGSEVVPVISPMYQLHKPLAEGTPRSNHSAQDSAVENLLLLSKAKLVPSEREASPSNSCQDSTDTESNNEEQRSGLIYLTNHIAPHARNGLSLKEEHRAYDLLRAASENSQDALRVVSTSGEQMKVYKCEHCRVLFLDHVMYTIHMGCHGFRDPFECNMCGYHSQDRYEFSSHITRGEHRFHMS
T1 sequence (Q9UKS7 whole entry): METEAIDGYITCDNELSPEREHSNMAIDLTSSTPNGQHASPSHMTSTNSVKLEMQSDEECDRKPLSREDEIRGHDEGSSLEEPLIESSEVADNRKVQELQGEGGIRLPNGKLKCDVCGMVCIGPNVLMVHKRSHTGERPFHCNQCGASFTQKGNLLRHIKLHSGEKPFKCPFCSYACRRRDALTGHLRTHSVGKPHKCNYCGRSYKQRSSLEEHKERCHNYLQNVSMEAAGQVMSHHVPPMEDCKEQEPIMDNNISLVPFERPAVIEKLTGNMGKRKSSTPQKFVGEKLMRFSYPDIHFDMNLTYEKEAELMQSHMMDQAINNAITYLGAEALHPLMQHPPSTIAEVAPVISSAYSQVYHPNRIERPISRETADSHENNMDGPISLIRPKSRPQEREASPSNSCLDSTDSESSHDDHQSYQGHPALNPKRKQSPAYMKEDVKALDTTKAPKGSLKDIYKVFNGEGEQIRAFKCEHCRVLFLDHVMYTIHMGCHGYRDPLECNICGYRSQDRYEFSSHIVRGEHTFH

Cc1nc2cccc(N)c2c(=O)n1C1CCC(=O)NC1=O (centres unmarked) [Compound A, 3-(5-amino-2-methyl-4-oxo-4H-quinazolin-3-yl)-piperidine-2,6-dione]
Endogenous Aiolos (Aiolos [1]; Her2+ cells (AU565, BT-474, EFM-192A and HCC1954)): inhibited
Levels of endogenous Aiolos (band around 60 kD) (Aiolos [1]; ZR 75-1 and AU565 cell lines, 24 hours after treatment): reduced the levels of Aiolos
Endogenous Aiolos (Aiolos [1]; triple negative cells (HCC70, MB436 and BT549)): not in triple negative cells

O=C1CC[C@H](N2Cc3c(OCc4ccc(CN5CCOCC5)cc4)cccc3C2=O)C(=O)N1 [Compound B, 3-(4-((4-(morpholinomethyl)benzyl)oxy)-1-oxoisoindolin-2-yl)piperidine-2,6-dione]
Aiolos expression (Aiolos [2]): inhibited the expression of Aiolos
Helios expression (Helios): without affecting Helios, Pegasus, or β-Actin

Nc1cccc2c1CN(C1CCC(=O)NC1=O)C2=O (centres unmarked) [lenalidomide]
IRF4 level associated with tumoricidal effect [3]: downregulation of interferon regulatory factor 4 (IRF4)
Ikaros in H929 MM cells in mice by immunohistochemistry (Ikaros): induces Aiolos and Ikaros degradation

Nc1cccc2c1C(=O)N(C1CCC(=O)NC1=O)C2=O (centres unmarked) [pomalidomide, reference compound]
Down-regulation of Aiolos (Aiolos [4]): loss of CRBN protein prevents down-regulation of Aiolos
